From PubChem BioAssay AID1508604 (National Center for Advancing Translational Sciences (NCATS), 2020)

What follows are compounds tested on CD-1 mouse liver cytosol, LC/MS substrate depletion half-life (assay: NCATS Mouse Liver Cytosol Stability Profiling). Details: at 1 µM; higher = more stable.
Description: Assay submitter (PI): Pranav Shah Ph.D. NIH Center for Advancing Translational Sciences 9800 Medical Center Dr, Rockville MD, 20850 Over the last few decades, chemists have become skilled at designing compounds that avoid cytochrome P (CYP) 450 mediated metabolism. Typical screening assays are performed in liver microsomal fractions and it is possible to overlook the contribution of cytosolic enzymes until much later in the drug discovery process. Few data exist on cytosolic enzyme-mediated metabolism and no reliable tools are available to chemists to help design away from such liabilities. In this study, we screened 1450 compounds for liver cytosol-mediated metabolic stability and extracted transformation rules that might help medicinal chemists in optimizing compounds with these liabilities. […] Matched molecular pairs analysis was performed in conjunction with qualitative-structure activity relationship modeling to identify chemical structure transformations affecting cytosolic stability. The transformation rules were prospectively validated on the test set. In addition, selected rules were validated on a diverse chemical library and the resulting pairs were experimentally tested to confirm whether the identified transformations could be generalized. The validation results, comprising nearly 250 library compounds and corresponding half-life data, are made publicly available. The datasets were also used to generate in silico classification models, based on different molecular descriptors and machine learning methods, to predict cytosol-mediated liabilities. To the best of our knowledge, this is the first systematic in silico effort to address cytosolic enzyme-mediated liabilities (Shah 2020). Reference: Shah, P., Siramshetty, V.B., Zakharov, A.V. et al. Predicting liver cytosol stability of small molecules. J Cheminform 12, 21 (2020). https://doi.org/10.1186/s13321-020-00426-7
Compounds are classified as unstable (t 1/2 < 30 min) or stable (t 1/2 > 30 min). […] Reference: 1. Shah, P. et al. An Automated High-Throughput Metabolic Stability Assay Using an Integrated High-Resolution Accurate Mass Method and Automated Data Analysis Software. Drug Metab Dispos 44, 1653-1661 (2016). PMID 27417180

Row | Structure (SMILES) | half-life [h]
1 | COCC1CN(C(C)=O)CC12CCN(Cc1ccc(Cl)cc1)CC2 (centres undefined) | > 2
2 | O=C1OCC2(CCN(Cc3ccn[nH]3)C2)N1CCN1CCOCC1 (centres undefined) | > 2
3 | O=C1[C@H]2CN(Cc3ccc(Cl)c(F)c3)C[C@H]2C(=O)N1Cc1ccc2c(c1)OCO2 | 0.921
4 | CN1C(=O)CO[C@H]2CN(Cc3ccc(Cl)cc3)C[C@H]21 | 1.94
5 | OCC1(CN2CCCC2)CCN(Cc2ccc(Cl)cc2)CC1 | 0.908
6 | COc1ccc(CN2C[C@H]3CN(Cc4ccc(Cl)cc4)CCN3C2=O)cc1 | 1.37
7 | COCC1CN(Cc2ccc(Cl)cc2)CC12CCNCC2 (centres undefined) | > 2
8 | COc1cc(=O)n2c(c1C(=O)Nc1ccc(Cl)c(F)c1)CCCC2 | 1.47
9 | COc1cccc(C(=O)NCC2CCCN(Cc3ccc(Cl)cc3)C2)c1OC (centres undefined) | > 2
10 | CCN1c2cc(C(=O)Nc3ccc(Cl)c(F)c3)ccc2C(=O)N2CCCCCC21 (centres undefined) | 0.904
11 | COCC1CN(C(C)=O)CC12CCN(Cc1ccc(Cl)c(F)c1)CC2 (centres undefined) | 1.36
12 | O=C1[C@H]2CN(Cc3ccc(Cl)cc3)C[C@H]2C(=O)N1CCc1ccccc1 | 0.792
13 | O=C1[C@H]2CN(Cc3ccc(Cl)c(F)c3)C[C@H]2C(=O)N1CCc1ccccc1 | 0.621
14 | CN(C1CCOCC1)C1CCN(C(=O)c2ccc(Cl)cc2)CC1 | > 2
15 | CCOc1cc(=O)n2c(c1C(=O)Nc1ccc(Cl)cc1)CCCC2 | 1.57
16 | CN1c2cc(C(=O)Nc3ccc(Cl)c(F)c3)ccc2C(=O)N2CCCCC21 (centres undefined) | 0.524
17 | OCC1(CN2CCCC2)CCN(Cc2ccc(Cl)c(F)c2)CC1 | 1.21
18 | CN(C)c1nc2c(c(=O)[nH]1)CCN(Cc1ccc(Cl)cc1)CC2 | 1.91
19 | O=C(Nc1cccc(-c2nnc3n2CCCC3)c1)c1ccc(Cl)cc1 | 0.941
20 | O=C1NC2(CCN(C(=O)c3ccc(Cl)cc3)CC2)CC1c1ccccc1 (centres undefined) | > 2
21 | CCN1c2cc(C(=O)Nc3ccc(Cl)cc3)ccc2C(=O)N2CCCCC21 (centres undefined) | 0.429
22 | CCN1c2cc(C(=O)Nc3ccc(Cl)cc3)ccc2C(=O)N2CCCCCC21 (centres undefined) | 0.935
23 | CN1CCN(c2nc3c(c(=O)[nH]2)CCN(Cc2ccc(Cl)cc2)CC3)CC1 | > 2
24 | O=c1[nH]c(N2CCOCC2)nc2c1CCN(Cc1ccc(Cl)cc1)CC2 | > 2
25 | Cn1c([C@H]2CCN(Cc3ccc(Cl)cc3)C2)nc2ccccc21 | > 2

Row | Structure (SMILES) | half-life [h]
26 | O=C(Nc1cccc(-c2nnc3n2CCCC3)c1)c1ccn[nH]1 | > 2
27 | CN(C)c1nc2c(c(=O)[nH]1)CCN(Cc1ccc(Cl)c(F)c1)CC2 | > 2
28 | COCC1CN(Cc2ccc(Cl)c(F)c2)CC12CCNCC2 (centres undefined) | > 2
29 | COc1cc(=O)n2c(c1C(=O)Nc1ccc(Cl)cc1)CCCC2 | > 2
30 | Cc1cccc(-c2noc([C@@H]3C[C@@H](O)CN3Cc3ccc(Cl)cc3)n2)c1 | 0.394
31 | O=c1[nH]c(N2CCOCC2)nc2c1CCN(Cc1ccc(Cl)c(F)c1)CC2 | 1.54
32 | O=C1[C@H]2CN(Cc3ccc(Cl)cc3)C[C@H]2C(=O)N1Cc1ccc2c(c1)OCO2 | 1.11
33 | FC(F)(F)c1ccc2nc([C@H]3CCN(Cc4ccc(Cl)cc4)C3)[nH]c2c1 | 0.945
34 | CN1c2cc(C(=O)Nc3ccc(Cl)cc3)ccc2C(=O)N2CCCCCC21 (centres undefined) | 1.06
35 | CCN1c2cc(C(=O)Nc3ccc(Cl)c(F)c3)ccc2C(=O)N2CCCCC21 (centres undefined) | 0.412
36 | COc1cccc(C(=O)NCC2CCCN(Cc3ccn[nH]3)C2)c1OC (centres undefined) | > 2
37 | O=C1NC2(CCN(C(=O)c3ccc(Cl)c(F)c3)CC2)CC1c1ccccc1 (centres undefined) | 1.43
38 | CN1c2cc(C(=O)Nc3ccc(Cl)c(F)c3)ccc2C(=O)N2CCCCCC21 (centres undefined) | 0.383
39 | CN1CCN(c2nc3c(c(=O)[nH]2)CCN(Cc2ccc(Cl)c(F)c2)CC3)CC1 | > 2
40 | O=C1OCC2(CCN(Cc3ccc(Cl)cc3)C2)N1CCN1CCOCC1 (centres undefined) | > 2
41 | CN1c2cc(C(=O)Nc3ccc(Cl)cc3)ccc2C(=O)N2CCCCC21 (centres undefined) | 1.39
42 | Cc1noc(-c2nc(-c3ccc(Cl)cc3)no2)n1 | 0.26
43 | CCOc1cc(=O)n2c(c1C(=O)Nc1ccc(Cl)c(F)c1)CCCC2 | 1.34
44 | O=C(Nc1ccc(-c2nnc3n2CCCC3)cc1)c1ccc(Cl)cc1 | 1.95
45 | CN(Cc1cccnc1)c1nc2c(c(=O)[nH]1)CCN(Cc1ccc(Cl)cc1)CC2 | 1.24
46 | Cc1ccc(-c2ccc3nnc(CNC(=O)c4ccc(Cl)cc4)n3n2)cc1 | > 2
47 | CN(C1CCOCC1)C1CCN(C(=O)c2ccn[nH]2)CC1 | > 2
48 | Cc1ccc2nc(CO[C@H]3CN(Cc4ccc(Cl)cc4)C[C@H]3F)[nH]c2c1 | > 2
49 | O=C(Nc1ccc(-c2nnc3n2CCCC3)cc1)c1ccn[nH]1 | > 2
